{"source": "patent US20220016115A1", "about": "“USP19 INHIBITORS FOR USE IN THERAPY” (ALMAC DISCOVERY LIMITED, priority 2018, published 2022)", "target": "T1, USP19 (Mus musculus, UniProt Q3UJD6)", "T1 construct": "endogenous in cells", "T1 sequence (Q3UJD6 1-1360)": "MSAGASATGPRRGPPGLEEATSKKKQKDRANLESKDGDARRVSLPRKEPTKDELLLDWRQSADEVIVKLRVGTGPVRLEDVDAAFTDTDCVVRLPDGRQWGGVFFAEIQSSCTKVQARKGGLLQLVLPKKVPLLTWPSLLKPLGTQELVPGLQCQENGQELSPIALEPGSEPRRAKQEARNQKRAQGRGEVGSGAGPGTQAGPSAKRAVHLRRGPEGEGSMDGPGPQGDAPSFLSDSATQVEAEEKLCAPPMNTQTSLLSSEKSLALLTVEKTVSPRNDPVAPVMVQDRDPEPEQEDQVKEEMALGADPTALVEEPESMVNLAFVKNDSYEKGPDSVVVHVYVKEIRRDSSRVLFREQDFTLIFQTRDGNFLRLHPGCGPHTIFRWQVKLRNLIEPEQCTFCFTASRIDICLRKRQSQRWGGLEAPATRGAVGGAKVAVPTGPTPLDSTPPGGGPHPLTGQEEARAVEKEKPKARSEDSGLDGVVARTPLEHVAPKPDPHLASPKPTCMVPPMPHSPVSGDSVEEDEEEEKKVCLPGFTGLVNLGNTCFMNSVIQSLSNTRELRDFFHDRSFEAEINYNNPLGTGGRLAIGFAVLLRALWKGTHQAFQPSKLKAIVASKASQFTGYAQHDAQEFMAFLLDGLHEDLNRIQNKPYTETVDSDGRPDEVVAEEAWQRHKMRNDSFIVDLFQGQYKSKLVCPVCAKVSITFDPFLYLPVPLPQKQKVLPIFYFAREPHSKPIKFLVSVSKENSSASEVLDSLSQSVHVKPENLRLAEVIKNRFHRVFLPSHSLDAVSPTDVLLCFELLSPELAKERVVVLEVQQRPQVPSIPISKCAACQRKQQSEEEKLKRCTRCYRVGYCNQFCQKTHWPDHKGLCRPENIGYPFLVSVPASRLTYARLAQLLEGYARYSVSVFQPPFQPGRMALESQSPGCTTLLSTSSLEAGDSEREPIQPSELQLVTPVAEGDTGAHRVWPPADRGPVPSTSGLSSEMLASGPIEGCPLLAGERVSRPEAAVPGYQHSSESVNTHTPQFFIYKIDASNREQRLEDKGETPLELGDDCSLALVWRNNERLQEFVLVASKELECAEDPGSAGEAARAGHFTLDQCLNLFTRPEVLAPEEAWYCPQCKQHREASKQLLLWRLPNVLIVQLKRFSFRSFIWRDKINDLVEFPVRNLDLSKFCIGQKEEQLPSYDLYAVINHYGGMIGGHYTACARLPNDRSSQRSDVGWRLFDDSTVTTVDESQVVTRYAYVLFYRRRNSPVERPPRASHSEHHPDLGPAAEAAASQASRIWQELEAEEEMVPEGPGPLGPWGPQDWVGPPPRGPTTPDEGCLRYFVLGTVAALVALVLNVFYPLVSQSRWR", "experiment": "Cell target engagement, mouse skeletal muscle cell line", "type": "cell-based", "description": "Cells from a breast cancer cell line, a neuroblastoma cell line and a mouse skeletal muscle cell line were treated with a USP19 inhibitor compound (ADC-141, corresponding to Example 212 provided herein) for 2 hrs, lysed (lysis buffer: 50 mM Tris pH 7.4; 150 mM NaCl; 5 mM MgCl2; 0.5 mM EDTA; 0.5% NP40; 10% Glycerol; 2 mM DTT) and Ubiquitin-propargylamine (Ub-PA; UbiQ) or Ubiquitin-vinyl methyl ester (Ub-VME; Almac Sciences Scotland Limited) was then added. Samples were analysed by western blotting probing for USP19 (EC50 determined by densitometry).", "data": [{"compound": "C[C@H](CC1CCCCC1)C(=O)N1CC[C@@](O)(Cn2cc(C(=O)N3CCNCC3)c(-c3ccccc3)cc2=O)C2(CCCC2)C1", "note": "[ADC-141, 1-(((S)-7-((R)-3-Cyclohexyl-2-methylpropanoyl)-10-hydroxy-7-azaspiro[4.5]decan-10-yl)methyl)-4-phenyl-5-(piperazine-1-carbonyl)pyridin-2(1H)-one]", "values": [{"measurement": "cell permeability", "result": "good cell permeability"}, {"measurement": "EC50 (USP19 target engagement, densitometry)", "setting": "2 hrs treatment, Ub-PA or Ub-VME probe, western blot", "result": "low nanomolar"}]}]}
